Data: the Kinase Knowledgebase extract (Sharma et al. 2016)

Target: EGFR (UniProt P00533)
Sequence (P00533 whole entry, looked up): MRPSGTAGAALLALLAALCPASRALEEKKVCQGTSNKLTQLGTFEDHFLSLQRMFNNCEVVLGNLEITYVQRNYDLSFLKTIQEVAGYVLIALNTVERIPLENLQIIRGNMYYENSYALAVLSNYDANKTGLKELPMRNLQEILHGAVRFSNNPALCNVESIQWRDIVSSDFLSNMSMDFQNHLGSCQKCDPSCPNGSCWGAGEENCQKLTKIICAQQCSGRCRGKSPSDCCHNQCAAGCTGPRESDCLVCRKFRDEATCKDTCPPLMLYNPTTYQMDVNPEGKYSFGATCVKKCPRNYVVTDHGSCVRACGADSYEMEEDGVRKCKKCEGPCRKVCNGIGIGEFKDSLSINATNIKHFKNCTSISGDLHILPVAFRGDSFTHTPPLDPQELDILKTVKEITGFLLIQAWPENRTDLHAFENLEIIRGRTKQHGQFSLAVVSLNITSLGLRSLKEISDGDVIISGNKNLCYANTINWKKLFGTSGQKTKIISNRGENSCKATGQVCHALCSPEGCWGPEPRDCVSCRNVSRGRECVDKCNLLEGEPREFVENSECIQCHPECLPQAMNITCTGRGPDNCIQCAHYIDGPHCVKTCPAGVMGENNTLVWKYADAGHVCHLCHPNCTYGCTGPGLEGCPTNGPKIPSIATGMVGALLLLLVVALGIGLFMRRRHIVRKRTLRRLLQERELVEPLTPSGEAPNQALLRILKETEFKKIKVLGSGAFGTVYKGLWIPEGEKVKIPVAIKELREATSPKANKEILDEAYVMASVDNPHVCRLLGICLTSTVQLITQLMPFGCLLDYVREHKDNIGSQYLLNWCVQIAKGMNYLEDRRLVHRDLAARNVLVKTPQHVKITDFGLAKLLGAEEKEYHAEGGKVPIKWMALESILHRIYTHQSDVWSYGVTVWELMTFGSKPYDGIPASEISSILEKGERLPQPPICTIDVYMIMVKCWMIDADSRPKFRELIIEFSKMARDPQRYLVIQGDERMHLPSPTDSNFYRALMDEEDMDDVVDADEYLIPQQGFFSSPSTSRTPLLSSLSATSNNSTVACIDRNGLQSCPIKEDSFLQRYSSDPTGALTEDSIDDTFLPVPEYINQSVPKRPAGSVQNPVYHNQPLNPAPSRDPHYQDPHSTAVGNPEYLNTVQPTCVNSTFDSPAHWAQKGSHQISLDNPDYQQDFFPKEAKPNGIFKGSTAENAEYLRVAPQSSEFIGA

Compound | IC50
O=C1C(c2cc(C(F)(F)F)cc(C(F)(F)F)c2)Cc2cnc(Nc3ccccc3)nc2N1c1ccccc1 (centres undefined) | > 10 µM
COc1ccccc1C1Cc2cnc(Nc3ccccc3)nc2N(c2ccccc2)C1=O (centres undefined) | < 10 µM
COc1ccc(C2Cc3cnc(Nc4ccccc4)nc3N(c3ccccc3)C2=O)cc1OC (centres undefined) | > 10 µM
Cc1ccccc1C1Cc2cnc(Nc3ccccc3)nc2N(c2ccccc2)C1=O (centres undefined) | < 10 µM
COc1ccc(C2Cc3cnc(Nc4cccnc4)nc3N(CC3CC3)C2=O)cc1 (centres undefined) | < 10 µM
O=C1C(c2ccncc2)Cc2cnc(Nc3ccccc3)nc2N1c1ccccc1 (centres undefined) | < 10 µM
COc1ccc(C2Cc3cnc(Nc4ccccc4)nc3N(CC(C)C)C2=O)cc1 (centres undefined) | < 10 µM
COc1ccc(OC)c(C2Cc3cnc(Nc4ccccc4)nc3N(c3ccccc3)C2=O)c1 (centres undefined) | < 10 µM
O=C1C(c2cccnc2)Cc2cnc(Nc3ccccc3)nc2N1c1ccccc1 (centres undefined) | < 10 µM

Continued, values first:

IC50 | Compound
< 10 µM | O=C1C(c2c(Cl)cccc2Cl)Cc2cnc(Nc3ccccc3)nc2N1c1ccccc1 (centres undefined)
< 10 µM | COc1ccc(C2Cc3cnc(Nc4ccc(OC)nc4)nc3N(c3ccccc3)C2=O)cc1 (centres undefined)
< 10 µM | COc1cc(OC)cc(C2Cc3cnc(Nc4ccccc4)nc3N(c3ccccc3)C2=O)c1 (centres undefined)
< 10 µM | COc1ccc(C2Cc3cnc(Nc4ccccc4)nc3N(c3ccccc3)C2=O)cc1 (centres undefined)
< 10 µM | O=C1C(c2ccccc2)Cc2cnc(Nc3ccccc3)nc2N1c1ccccc1 (centres undefined)
